{"source": "paper PMC8766756", "about": "“Insights on Cancer Cell Inhibition, Subcellular Activities, and Kinase Profile of Phenylacetamides Pending 1H-Imidazol-5-One Variants” (Frontiers in Pharmacology, 2022)", "experiment_in_all_cases": "Human Phospho-Kinase Array in HL60 cells", "assay_type_in_all_cases": "cell-based", "key": {"HSP60": {"tested_on": "HSP60", "source_text": "(§1) We also measured changes in kinase activities of some selected Ser/Thr kinases using the Human Phospho-Kinase Array® kit (R&D Systems) which encompasses phosphoprotein-specific capture antibodies spotted at a certain location (in duplicates) on a nitrocellulose membrane. The signal intensities, detected by a sandwich immunoassay, are proportional to the amount of each phosphokinase in the cell lysate (Figure 8).\n(§2) FIGURE 8 Phosphokinase proteome profile of KIM-161 in HL60 cell line. (A) Cells lysates were prepared after 10 h treatment with KIM-161 and applied to the membranes prespotted with the different antibodies. […] The height of each bar represents the average intensity of certain protein signals in treated cells/untreated × 100. Therefore, the dotted line represents the control percentage (100%).\n(§3) The phosphorylation profile of 48 kinases was performed using the Proteome Profiler Human Phospho-Kinase Array an antibody array kit, by R&D Systems (Minneapolis, MN, USA). Total protein was extracted from the cell lysates treated with 365 nM KIM-161 for 10 h using the lysis buffer provided in the kit and quantified using the Bio-Rad DC Protein Assay kit (USA). The nitrocellulose membrane set (A&B), pre-spotted with the capture antibodies, was first blocked with 1 ml of Array buffer 1 at RT for 1 h in an 8-well multi-dish on a rocking platform shaker. Approximately 600 µg of protein concentrate (<334 µL) was diluted in the Array buffer 1 to a final volume of 2 ml. 1 ml of the protein sample was added onto the membrane set and incubated overnight at 4°C on a rocking platform shaker. Subsequently, membranes were washed with 15 ml of 1× wash buffer thrice for 5 min at RT, and the excess buffer was completely drained. The membranes A&B were then incubated with appropriate detection antibody cocktails A&B that were reconstituted using the 1× Array buffer 2/3 for 2 h at RT. After the incubation was complete, the membranes were washed with 15 ml of 1× wash buffer thrice for 5 min at RT, and the excess buffer was completely drained. Streptavidin-HRP (1:2000), diluted in 1× Array buffer 2/3, was applied onto the membranes and incubated for 30 min at RT on a rocking platform shaker. The membranes were washed thrice, and Chemi Reagent 1&2 were applied in equal volumes for detection on C-DiGit®Blot Scanner (LI-COR Odyssey Imaging Systems, Lincoln, Nebraska, USA) using the Image Studio 5.0 software."}, "CREB": {"tested_on": "CREB", "source_text": "as §1, §2, §3"}, "[1]": {"tested_on": "ERK1/2 (T202/Y204, T185/Y187)", "source_text": "as §1, §2, §3"}, "GSK-3α/β (S21/S9)": {"tested_on": "GSK-3α/β (S21/S9)", "source_text": "as §1, §2, §3"}, "STAT2 (Y689)": {"tested_on": "STAT2 (Y689)", "source_text": "as §1, §2, §3"}, "Chk-2": {"tested_on": "Chk-2", "source_text": "as §1, §2, §3"}, "AMPKα1": {"tested_on": "AMPKα1", "source_text": "as §1, §2, §3"}, "AKT 1/2/3": {"tested_on": "AKT 1/2/3", "details": "10 h (KIM-161 365 nM)", "source_text": "as §1, §2, §3"}, "C-Jun": {"tested_on": "C-Jun", "source_text": "as §1, §2, §3"}, "HSP27 (S78/S82)": {"tested_on": "HSP27 (S78/S82)", "source_text": "as §1, §2, §3"}, "JNK 1/2/3": {"tested_on": "JNK 1/2/3", "source_text": "as §1, §2, §3"}, "[2]": {"details": "HL60, 365 nM, 10 h, vs untreated"}, "[3]": {"details": "HSP60 spot, HL60 cells, 10 h (KIM-161 365 nM)"}, "[4]": {"details": "CREB spot, HL60 cells, 10 h (KIM-161 365 nM)"}, "[5]": {"details": "ERK1/2 spot, HL60 cells, 10 h (KIM-161 365 nM)"}, "[6]": {"details": "HL60, 365 nM, 10 h, vs untreated, listed as KIM-161"}, "[7]": {"details": "GSK-3α/β spot, HL60 cells, 10 h (KIM-161 365 nM)"}, "[8]": {"details": "STAT2 spot, HL60 cells, 10 h (KIM-161 365 nM)"}, "[9]": {"details": "Chk-2 spot, HL60 cells, 10 h (KIM-161 365 nM)"}, "[10]": {"details": "AMPKα1 spot, HL60 cells, 10 h (KIM-161 365 nM)"}, "[11]": {"details": "C-Jun spot, HL60 cells, 10 h (KIM-161 365 nM)"}, "[12]": {"details": "HSP27 spot, HL60 cells, 10 h (KIM-161 365 nM)"}, "[13]": {"details": "JNK 1/2/3 spot, HL60 cells, 10 h (KIM-161 365 nM)"}}, "note": "Entries after “also recorded” stand apart in the source; their conditions may differ.", "data": [{"smiles": "COc1ccc(/C=C2\\N=C(C)N(c3ccc(CC(=O)NCc4ccccc4)cc3)C2=O)cc1", "note": "[Compound 4c, (Z)-N-Benzyl-2-(4-(4-(4-methoxybenzylidene)-2-methyl-5-oxo-4,5-dihydro-1H-imidazol-1-yl)phenyl)acetamide]", "values": [{"measurement": "reduction of HSP60 activity", "setting": "HSP60; [2]", "result": 28.5, "unit": "%"}, {"measurement": "Normalized to HK", "setting": "HSP60; [3]", "result": 0.0227}, {"measurement": "Normalized x10K", "setting": "HSP60; [3]", "result": 227.18}, {"measurement": "Signal", "setting": "HSP60; [3]", "result": 90.20}, {"measurement": "activity at 0.365 µM", "setting": "HSP60; Homo sapiens, HL-60, HSP60 spot, HL60 cells, 10 h (KIM-161 365 nM), untreated = 100, read-out: % Ctrl", "result": 71.5, "unit": "%"}, {"measurement": "Normalized to HK", "setting": "CREB; [4]", "result": 0.0405}, {"measurement": "Normalized x10K", "setting": "CREB; [4]", "result": 405.44}, {"measurement": "Signal", "setting": "CREB; [4]", "result": 142.45}, {"measurement": "reduction of CREB activity", "setting": "CREB; [2]", "result": 36.7, "unit": "%"}, {"measurement": "activity at 0.365 µM", "setting": "CREB; Homo sapiens, HL-60, CREB spot, HL60 cells, 10 h (KIM-161 365 nM), untreated = 100, read-out: % Ctrl", "result": 63.3, "unit": "%"}, {"measurement": "Normalized to HK", "setting": "[1]; [5]", "result": 0.0000}, {"measurement": "Normalized x10K", "setting": "[1]; [5]", "result": 0.00}, {"measurement": "Signal", "setting": "[1]; [5]", "result": 0.00}, {"measurement": "change of ERK1/2 phosphokinase signal", "setting": "[1]; [6]", "result": "strongly suppresses; also recorded: strong downregulation"}, {"measurement": "activity at 0.365 µM", "setting": "[1]; Homo sapiens, HL-60, ERK1/2 spot, HL60 cells, 10 h (KIM-161 365 nM), untreated = 100, read-out: % Ctrl", "result": 0, "unit": "%"}, {"measurement": "Normalized to HK", "setting": "GSK-3α/β (S21/S9); [7]", "result": 0.0000}, {"measurement": "Normalized x10K", "setting": "GSK-3α/β (S21/S9); [7]", "result": 0.00}, {"measurement": "Signal", "setting": "GSK-3α/β (S21/S9); [7]", "result": 0.00}, {"measurement": "change of GSK-3α/β phosphokinase signal", "setting": "GSK-3α/β (S21/S9); [6]", "result": "strongly suppresses; also recorded: strong downregulation"}, {"measurement": "activity at 0.365 µM", "setting": "GSK-3α/β (S21/S9); Homo sapiens, HL-60, GSK-3α/β spot, HL60 cells, 10 h (KIM-161 365 nM), untreated = 100, read-out: % Ctrl", "result": 0, "unit": "%"}, {"measurement": "change of STAT2 phosphokinase signal", "setting": "STAT2 (Y689); [6]", "result": "strongly suppresses; also recorded: strong downregulation"}, {"measurement": "activity at 0.365 µM", "setting": "STAT2 (Y689); Homo sapiens, HL-60, STAT2 spot, HL60 cells, 10 h (KIM-161 365 nM), untreated = 100, read-out: % Ctrl", "result": 0, "unit": "%"}, {"measurement": "Normalized to HK", "setting": "STAT2 (Y689); [8]", "result": 0.00}, {"measurement": "Normalized x10K", "setting": "STAT2 (Y689); [8]", "result": 0.00}, {"measurement": "Signal", "setting": "STAT2 (Y689); [8]", "result": 0.00}, {"measurement": "Normalized to HK", "setting": "Chk-2; [9]", "result": 0.00913}, {"measurement": "Normalized x10K", "setting": "Chk-2; [9]", "result": 91.25}, {"measurement": "Signal", "setting": "Chk-2; [9]", "result": 32.06}, {"measurement": "change of Chk-2 activity", "setting": "Chk-2; [2]", "result": "upregulated"}, {"measurement": "Normalized to HK", "setting": "AMPKα1; [10]", "result": 0.0019}, {"measurement": "Normalized x10K", "setting": "AMPKα1; [10]", "result": 18.91}, {"measurement": "Signal", "setting": "AMPKα1; [10]", "result": 6.64}, {"measurement": "change of AMPKα1 phosphorylation", "setting": "AMPKα1; [6]", "result": "downregulated; also recorded: to a quarter of its level compared to the control"}, {"measurement": "activity at 0.365 µM", "setting": "AMPKα1; Homo sapiens, HL-60, AMPKα1 spot, HL60 cells, 10 h (KIM-161 365 nM), untreated = 100, read-out: % Ctrl", "result": 27.9, "unit": "%"}, {"measurement": "Normalized to HK", "setting": "AKT 1/2/3; AKT 1/2/3 spot", "result": 0.00}, {"measurement": "Normalized x10K", "setting": "AKT 1/2/3; AKT 1/2/3 spot", "result": 0.00}, {"measurement": "Signal", "setting": "AKT 1/2/3; AKT 1/2/3 spot", "result": 0.00}, {"measurement": "activity at 0.365 µM", "setting": "AKT 1/2/3; Homo sapiens, HL-60, AKT 1/2/3 spot, untreated = 100, read-out: % Ctrl", "result": 0, "unit": "%"}, {"measurement": "Normalized to HK", "setting": "C-Jun; [11]", "result": 0.1136}, {"measurement": "Normalized x10K", "setting": "C-Jun; [11]", "result": 1136.44}, {"measurement": "Signal", "setting": "C-Jun; [11]", "result": 451.20}, {"measurement": "enhancement of c-Jun", "setting": "C-Jun; [2]", "result": 15.8, "unit": "%"}, {"measurement": "activity at 0.365 µM", "setting": "C-Jun; Homo sapiens, HL-60, C-Jun spot, HL60 cells, 10 h (KIM-161 365 nM), untreated = 100, read-out: % Ctrl", "result": 116, "unit": "%"}, {"measurement": "change of HSP27 phosphokinase signal", "setting": "HSP27 (S78/S82); [6]", "result": "strongly suppresses; also recorded: strong downregulation"}, {"measurement": "Normalized to HK", "setting": "HSP27 (S78/S82); [12]", "result": 0.00}, {"measurement": "Normalized x10K", "setting": "HSP27 (S78/S82); [12]", "result": 0.00}, {"measurement": "Signal", "setting": "HSP27 (S78/S82); [12]", "result": 0.00}, {"measurement": "activity at 0.365 µM", "setting": "HSP27 (S78/S82); Homo sapiens, HL-60, HSP27 spot, HL60 cells, 10 h (KIM-161 365 nM), untreated = 100, read-out: % Ctrl", "result": 0, "unit": "%"}, {"measurement": "reduction of JNK1/2/3 activity", "setting": "JNK 1/2/3; [2]", "result": 26.0, "unit": "%"}, {"measurement": "activity at 0.365 µM", "setting": "JNK 1/2/3; Homo sapiens, HL-60, JNK 1/2/3 spot, HL60 cells, 10 h (KIM-161 365 nM), untreated = 100, read-out: % Ctrl", "result": 74, "unit": "%"}, {"measurement": "Normalized to HK", "setting": "JNK 1/2/3; [13]", "result": 0.0031}, {"measurement": "Normalized x10K", "setting": "JNK 1/2/3; [13]", "result": 31.34}, {"measurement": "Signal", "setting": "JNK 1/2/3; [13]", "result": 11.01}]}]}
